# Data as given in patent publication US20240076284A1, “NEW COMPOUNDS AND METHODS” (BENEVOLENTAI BIO LIMITED, priority 2020, published 2024).
# Key:
# Rat microsomal stability = format: in vitro ADME; conditions: rat microsomes, second value of cell; NADPH, 37° C., up to 40 min
# Protocol: (§1) This assay measures the metabolic stability of a given compound and predicts intrinsic liver clearance for various species. A quench plate is initially prepared which contains 400 μL MeCN and 25 ng/mL of internal standard. An aliquot of microsomes is defrosted and subsequently diluted with buffer. A solution of NADPH is made up fresh just before initialising the assay. 445 μL of microsome solution is added to the desired compound (5 μL in 10 μM DMSO) and the resulting solution mixed. The reaction is initiated by the addition of 50 μL of NADPH, a T0 sample is removed before the addition and quenched. The sample plate is kept at a constant 37° C. during the incubation. At pre-determined timepoints (2.5, 5, 10, 20 and 40 min) the incubation is mixed and 22.5 μL samples are transferred to quench plates. After completion of the time course, the quench plates are sealed and shaken for a minimum of 5 min, before centrifugation at 4000 rpm for 5 min. The supernatant is then subsequently transferred to a fresh plate and diluted 1:3 with MeOH/H2O. The plates are then heat sealed and analysed by a Water Acquity UPLC and a Waters TQ-S mass spectrometer. Waters MassLynx software is used for analysis using an MRM transition that has been previously generated from prior optimisation. After acquiring the data on the system the chromatograms are processed and checked using TargetLynx XS software and the raw data output is copied into a microsomal stability workbook. The workbook automatically populates and derives the CLint, t1/2 and scales the CLint values to generate Eh and predicted CL values. The analyst has the final workbook quality checked before the experiment is signed off.
# [1] = Human microsomal stability; format: in vitro ADME; conditions: human microsomes, first value of cell; NADPH, 37° C., up to 40 min
# Protocol: as §1
# MDR1 = target: T1, MDR1 (Homo sapiens, UniProt P08183); experiment: MDR1-MDCK effective efflux ratio; format: in vitro ADME; conditions: MDR1-MDCK relative to wild-type MDCK, 1 μM, 60 minutes, pH 7.4
# T1 construct: expressed in transfected cells; host or cells: MDCK (canine kidney) cells
# Protocol: (§2) Wild-type MDCK, MDR1-MDCK and BCRP-MDCK cells were seeded into 24 well Transwell plates and cultured for 3 days to form monolayers. Test compound were prepared at 1 μM in Hanks' Balanced Salt Solution containing 25 mM HEPES and loaded into the donor compartments of Transwell plates bearing the cell monolayers (pH 7.4 for both donor and receiver compartments). Lucifer Yellow was added to the apical buffer in all wells to assess integrity of the cell monolayer. Duplicate wells were prepared and incubated at 37° C. in a CO2 incubator. Samples were removed at time zero and 60 minutes and test compound analysed by LC-MS/MS. Concentrations of Lucifer Yellow in the samples was measured using a fluorescence plate reader. The apparent permeability (Papp) values of test compound was determined for both the apical to basal (A>B) and basal to apical (B>A) permeation and the efflux ratio (B>A: A>B) determined in each cell line. The effective efflux ratio was determined from the ratio of either MDR1-MDCK cells or BCRP-MDCK cells relative to the ratio observed in wild-type cells. A higher value represent a better substrate for the efflux mechanism, which is less preferable.
# BCRP = target: T2, BCRP (Homo sapiens, UniProt Q9UNQ0); experiment: BCRP-MDCK effective efflux ratio; format: in vitro ADME; conditions: BCRP-MDCK relative to wild-type MDCK, 1 μM, 60 minutes, pH 7.4
# T2 construct: expressed in transfected cells; host or cells: MDCK (canine kidney) cells
# T2 sequence (Q9UNQ0 1-655): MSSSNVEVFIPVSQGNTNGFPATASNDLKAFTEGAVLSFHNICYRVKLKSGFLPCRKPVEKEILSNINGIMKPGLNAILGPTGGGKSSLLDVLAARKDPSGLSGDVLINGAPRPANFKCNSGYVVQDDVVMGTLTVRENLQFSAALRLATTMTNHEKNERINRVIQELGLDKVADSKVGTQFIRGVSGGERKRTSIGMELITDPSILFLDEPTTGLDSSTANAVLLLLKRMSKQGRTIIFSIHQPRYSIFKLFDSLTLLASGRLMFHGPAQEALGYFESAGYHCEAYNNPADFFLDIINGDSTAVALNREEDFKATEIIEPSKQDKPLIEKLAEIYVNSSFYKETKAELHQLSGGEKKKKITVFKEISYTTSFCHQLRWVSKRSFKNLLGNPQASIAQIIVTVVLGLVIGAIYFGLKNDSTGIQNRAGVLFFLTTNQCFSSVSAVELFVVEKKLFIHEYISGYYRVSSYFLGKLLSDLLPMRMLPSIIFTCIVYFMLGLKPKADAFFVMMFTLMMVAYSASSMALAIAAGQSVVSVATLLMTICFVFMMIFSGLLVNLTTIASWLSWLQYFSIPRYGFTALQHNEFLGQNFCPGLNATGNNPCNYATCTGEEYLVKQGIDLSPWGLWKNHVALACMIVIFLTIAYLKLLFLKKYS
# Protocol: as §2
# [2] = target: T3, Ba/F3 cells expressing BCR-ABL (Homo sapiens, UniProt P00519); experiment: Ba/F3 CellTiter-Glo Assay; format: cell-based; conditions: 48 h incubation, CellTiter-Glo luminescence
# T3 construct: BCR (fusion partner, N-terminal portion of BCR); host or cells: Ba/F3 (murine pro-B cells); the other entry of the earlier key: BCR (P11274, Breakpoint cluster region protein)
# T3 sequence (P00519 229-512 limits assumed): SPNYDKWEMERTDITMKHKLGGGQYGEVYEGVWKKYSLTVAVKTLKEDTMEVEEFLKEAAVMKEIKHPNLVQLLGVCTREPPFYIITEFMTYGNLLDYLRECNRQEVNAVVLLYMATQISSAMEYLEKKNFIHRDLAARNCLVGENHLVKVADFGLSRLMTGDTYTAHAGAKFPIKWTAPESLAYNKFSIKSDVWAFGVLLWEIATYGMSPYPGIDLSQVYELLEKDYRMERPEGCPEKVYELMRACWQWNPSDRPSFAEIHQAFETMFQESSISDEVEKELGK
# Protocol: The CellTiter-Glo luminescent cell viability assay is a homogeneous method of determining the number of viable cells in culture based on quantification of the ATP present. Briefly, IL-3 dependent Ba/F3 cells are modified to express BCR-ABL. Activity of the transformed kinase overrides IL-3 dependency for cellular proliferation and survival. […] In this assay Ba/F3 cells expressing BCR-ABL (Advanced Cellular Dynamics) or parental Ba/F3 (control) cells were prepared at 5×10^4/mL in RPMI 1640 containing 10% FBS, 1×Glutamax and 750 ng/mL puromycin. Test compounds were dispensed into 384 well plates using the Tecan D300e at a top final assay concentration of 10 μM with dosing normalised to 0.1% DMSO in […]. 50 μL cells were added to each well of the prepared 384 well plates and the plates spun at 1000 rpm for 1 min prior to incubation at 37° C., 5% CO2 for 48 h. After 48 h 15 μL CellTiter-Glo reagent was added to each well in the plate. Following a 60 min incubation at rt luminescence was read on the Pherastar FS reader.
# T1 sequence (P08183 whole entry, species assumed): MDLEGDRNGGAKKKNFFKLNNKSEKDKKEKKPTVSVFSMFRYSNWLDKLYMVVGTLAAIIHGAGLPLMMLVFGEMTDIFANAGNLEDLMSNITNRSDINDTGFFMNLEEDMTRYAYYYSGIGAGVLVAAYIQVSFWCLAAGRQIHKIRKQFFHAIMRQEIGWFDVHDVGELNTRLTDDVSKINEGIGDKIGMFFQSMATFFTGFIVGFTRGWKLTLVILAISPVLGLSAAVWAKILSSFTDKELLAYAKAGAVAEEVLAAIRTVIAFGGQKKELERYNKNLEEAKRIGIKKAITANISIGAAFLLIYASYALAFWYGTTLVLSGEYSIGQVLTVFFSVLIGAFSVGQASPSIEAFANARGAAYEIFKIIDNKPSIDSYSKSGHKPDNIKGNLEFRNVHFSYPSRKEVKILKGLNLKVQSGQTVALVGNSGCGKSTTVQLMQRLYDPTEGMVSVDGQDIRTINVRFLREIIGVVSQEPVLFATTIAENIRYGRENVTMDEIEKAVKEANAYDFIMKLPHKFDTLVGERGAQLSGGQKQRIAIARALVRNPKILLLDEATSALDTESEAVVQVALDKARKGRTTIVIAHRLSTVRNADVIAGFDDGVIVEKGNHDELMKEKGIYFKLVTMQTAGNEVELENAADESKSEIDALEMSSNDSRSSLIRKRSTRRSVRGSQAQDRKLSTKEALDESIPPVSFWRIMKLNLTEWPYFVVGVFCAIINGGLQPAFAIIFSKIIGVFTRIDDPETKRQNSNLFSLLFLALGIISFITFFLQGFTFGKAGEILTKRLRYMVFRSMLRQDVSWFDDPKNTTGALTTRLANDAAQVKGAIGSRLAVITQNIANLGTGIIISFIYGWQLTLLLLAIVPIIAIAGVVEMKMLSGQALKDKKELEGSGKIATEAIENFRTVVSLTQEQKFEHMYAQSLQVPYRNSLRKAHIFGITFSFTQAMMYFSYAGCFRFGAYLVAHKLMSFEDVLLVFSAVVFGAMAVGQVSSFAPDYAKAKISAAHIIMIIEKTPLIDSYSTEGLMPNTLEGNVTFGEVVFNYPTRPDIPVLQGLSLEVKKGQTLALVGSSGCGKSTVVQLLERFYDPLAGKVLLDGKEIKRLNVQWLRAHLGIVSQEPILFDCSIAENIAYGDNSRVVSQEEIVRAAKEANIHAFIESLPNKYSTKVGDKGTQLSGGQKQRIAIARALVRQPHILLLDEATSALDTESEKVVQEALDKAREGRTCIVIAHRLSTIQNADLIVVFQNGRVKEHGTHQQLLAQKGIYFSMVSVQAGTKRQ
SMILES,Microsomal stability (human/rat) Eh (Rat microsomal stability),Microsomal stability (human/rat) Eh [1],MDCK MDR1 EER (MDR1),MDCK BCRP EER (BCRP),IC50 [2]
"Cc1ccc(C(=O)Nc2cc(CN3CCCC3)cc(C(F)(F)F)c2)cc1-n1cc(-c2cccnc2)cn1 [Comparative example 1, 4-Methyl-3-[4-(3-pyridyl)pyrazol-1-yl]-N-[3-(pyrrolidin-1-ylmethyl)-5-(trifluoromethyl)phenyl]benzamide, reference compound]",0.93,0.81,–,–,–
"Cc1ccc(C(=O)Nc2cc(CN3CCOCC3)cc(C(F)(F)F)c2)cc1-n1cc(-c2cccnc2)cn1 [Comparative example 2, 4-Methyl-N-[3-(morpholinomethyl)-5-(trifluoromethyl)phenyl]-3-[4-(3-pyridyl)pyrazol-1-yl]benzamide, reference compound]",0.99,0.96,6.5,1.8,–
"Cc1ccc(C(=O)Nc2cc(C(F)(F)F)ccn2)cc1-n1ccc(-c2cccnc2)n1 [Comparative example 4, 4-Methyl-3-[3-(3-pyridyl)pyrazol-1-yl]-N-[4-(trifluoromethyl)-2-pyridyl]benzamide, reference compound]",–,–,–,–,2710 nM
"Cc1ccc(C(=O)Nc2cc(C(F)(F)F)ccn2)cc1-n1cc(-c2cccnc2)cn1 [Example 1, 4-Methyl-3-[4-(3-pyridyl)pyrazol-1-yl]-N-[4-(trifluoromethyl)-2-pyridyl]benzamide]",0.69,0.70,1,1.5,22 nM
"Cc1ccc(C(=O)Nc2cc(C(F)(F)F)cnn2)cc1-n1cc(-c2cccnc2)cn1 [Example 2, 4-Methyl-3-[4-(3-pyridyl)pyrazol-1-yl]-N-[5-(trifluoromethyl)pyridazin-3-yl]benzamide]",0.67,0.56,2.9,1.5,40 nM
"Cc1ccc(C(=O)Nc2cc(C(F)(F)F)ccn2)cc1-n1cc(-c2cncnc2)cn1 [Example 3, 4-Methyl-3-(4-pyrimidin-5-ylpyrazol-1-yl)-N-[4-(trifluoromethyl)-2-pyridyl]benzamide]",0.44,0.56,1.0,1.0,25 nM
"CNc1ncc(-c2cnn(-c3cc(C(=O)Nc4cc(C(F)(F)F)ccn4)ccc3C)c2)cn1 [Example 5, 4-Methyl-3-[4-[2-(methylamino)pyrimidin-5-yl]pyrazol-1-yl]-N-[4-(trifluoromethyl)-2-pyridyl]benzamide]",–,–,1.1,1.0,54 nM
"Cc1ccc(C(=O)Nc2cc(C(F)(F)F)ccn2)cc1-n1cc(-c2cncc(N3CCN(C)CC3)c2)cn1 [Example 6, 4-Methyl-3-[4-[5-(4-methylpiperazin-1-yl)-3-pyridyl]pyrazol-1-yl]-N-[4-(trifluoromethyl)-2-pyridyl]benzamide]",–,–,–,–,83 nM
Cc1cncc(-c2cnn(-c3cc(C(=O)Nc4cc(C(F)(F)F)ccn4)ccc3C)c2)c1 [Example 7],–,–,1.2,0.8,32 nM

# Next, values leading:
Microsomal stability (human/rat) Eh (Rat microsomal stability),Microsomal stability (human/rat) Eh [1],MDCK MDR1 EER (MDR1),MDCK BCRP EER (BCRP),IC50 [2],SMILES
–,–,1.6,1.1,29 nM,"Cc1ccc(C(=O)Nc2cc(C(F)(F)F)ccn2)cc1-n1cc(-c2cncc(F)c2)cn1 [Example 8, 3-[4-(5-Fluoropyridin-3-yl)-1H-pyrazol-1-yl]-4-methyl-N-[4-(trifluoromethyl)pyridin-2-yl]benzamide]"
–,–,1.2,1.1,28 nM,"COc1cncc(-c2cnn(-c3cc(C(=O)Nc4cc(C(F)(F)F)ccn4)ccc3C)c2)c1 [Example 9, 3-[4-(5-methoxypyridin-3-yl)-1H-pyrazol-1-yl]-4-methyl-N-[4-(trifluoromethyl)pyridin-2-yl]benzamide]"
0.65,0.70,–,–,18 nM,"Cc1ccc(C(=O)Nc2cc(C(F)(F)F)cc(C#N)n2)cc1-n1cc(-c2cccnc2)cn1 [Example 10, N-[6-cyano-4-(trifluoromethyl)pyridin-2-yl]-4-methyl-3-[4-(pyridin-3-yl)-1H-pyrazol-1-yl]benzamide]"
–,–,9.8,8.5,–,"Cc1ccc(C(=O)Nc2cc(C(F)(F)F)cnn2)cc1-n1cc(-c2cccnc2)nn1 [compound 3, 4-Methyl-3-[4-(3-pyridyl)triazol-1-yl]-N-[5-(trifluoromethyl)pyridazin-3-yl]benzamide, reference compound]"
–,–,4.3,2.1,–,"Cc1ccc(C(=O)Nc2ccc(CN3CCN(C)CC3)c(C(F)(F)F)c2)cc1-n1cc(-c2cnc(N)nc2)nn1 [compound 5, 3-[4-(2-aminopyrimidin-5-yl)triazol-1-yl]-4-methyl-N-[4-[(4-methylpiperazin-1-yl)methyl]-3-(trifluoromethyl)phenyl]benzamide, reference compound]"
–,–,15.8,5.0,–,"Cc1ccc(C(=O)Nc2cc(C(F)(F)F)c(CN3CCN(C)CC3)cn2)cc1-n1cc(-c2cccnc2)cn1 [compound 6, 4-Methyl-N-[5-[(4-methylpiperazin-1-yl)methyl]-4-(trifluoromethyl)-2-pyridyl]-3-[4-(3-pyridyl)pyrazol-1-yl]benzamide, reference compound]"
